# According to patent US20120270237A9, “METHODS FOR THE IDENTIFICATION OF KINASE INTERACTING MOLECULES AND FOR THE PURIFICATION OF KINASE PROTEINS” (Cellzone AG, priority 2009, published 2012):
# Legend:
# Assay in all cases: Kinobeads competition binding, HL60 cell lysate
# Set-up in all cases: endogenous in cells; host or cells: HL60
# Settings in all cases: 10 μM free compound
# [1] = target: IRAK3 (Homo sapiens, UniProt Q9Y616)
# Procedure: (§1) To one aliquot of cell lysate 10 μM of the free compound (FIG. 3, CZC31326) was added and allowed to bind to proteins in the lysate. Then the affinity matrix with the immobilized compound (Example 1) was added to capture proteins that were not interacting with the previously added free compound. Beads were separated from the lysate and bead bound proteins were eluted in SDS sample buffer and subsequently separated by SDS-Polyacrylamide gel electrophoresis (FIG. 4). Suitable gel bands were cut out and subjected to in-gel proteolytic digestion with trypsin. The second lysate aliquot was processed identically, however no free compound was added (DMSO solvent control). Peptides originating from samples 1 and 2 were labeled with iTRAQ reagents (iTRAQ 114 and iTRAQ 117) and the combined samples were analyzed with a nano-flow liquid chromatography system coupled online to a tandem mass spectrometer (LC-MS/MS) experiment followed by iTRAQ reporter ion quantification in the MS/MS spectra (Ross et al., 2004. Mol. Cell. Proteomics 3(12):1154-1169). Further experimental protocols can be found in WO2006/134056 and a previous publication (Bantscheff et al., 2007. Nature Biotechnology 25, 1035-1044). Sepharose-beads with the immobilized compound (100 μl beads per pull-down experiment) were equilibrated in lysis buffer and incubated with a cell lysate sample containing 50 mg of protein on an end-over-end shaker (Roto Shake Genie, Scientific Industries Inc.) for 2 hours at 4° C. Beads were collected, transferred to Mobicol-columns (MoBiTech 10055) and washed with 10 ml lysis buffer containing 0.4% NP40 detergent, followed by 5 ml lysis buffer containing 0.2% detergent. To elute bound proteins, 60 μl 2×SDS sample buffer was added to the column. The column was incubated for 30 minutes at 50° C. and the eluate was transferred to a siliconized microfuge tube by centrifugation. Proteins were then alkylated with 108 mM iodoacetamid. Proteins were then separated by SDS-Polyacrylamide electrophoresis (SDS-PAGE). The peptide extracts of samples treated with 10 μM of free compound (CZC31326) and the solvent control (0.5% DMSO) were treated with different variants of the isobaric tagging reagent (iTRAQ Reagents Multiplex Kit, part number 4352135, Applied Biosystems, Foster City, Calif., USA). The iTRAQ reagents are a set of multiplexed, amine-specific, stable isotope reagents that can label peptides on amino groups in up to four different biological samples enabling simultaneous identification and quantitation of peptides. The iTRAQ reagents were used according to instructions provided by the manufacturer. The samples were resuspended in 10 μl 50 mM TEAB solution, pH 8.5 and 10 μl ethanol were added. The iTRAQ reagent was dissolved in 120 μl ethanol and 10 μl of reagent solution were added to the sample. The labeling reaction was performed at room temperature for one hour on a horizontal shaker and stopped by adding 5 μl of 100 mM TEAB and 100 mM glycine in water. The two labeled sampled were then combined, dried in a vacuum centrifuge and resuspended in 10 μl of 0.1% formic acid in water. Relative protein quantitation was performed using peak areas of iTRAQ reporter ion signals essentially as described in an earlier publication (Bantscheff et al., 2007. Nature Biotechnology 25, 1035-1044).
# [2] = target: T1, PIP5K2C (Homo sapiens, UniProt Q8TBX8)
# T1 sequence (Q8TBX8 1-421): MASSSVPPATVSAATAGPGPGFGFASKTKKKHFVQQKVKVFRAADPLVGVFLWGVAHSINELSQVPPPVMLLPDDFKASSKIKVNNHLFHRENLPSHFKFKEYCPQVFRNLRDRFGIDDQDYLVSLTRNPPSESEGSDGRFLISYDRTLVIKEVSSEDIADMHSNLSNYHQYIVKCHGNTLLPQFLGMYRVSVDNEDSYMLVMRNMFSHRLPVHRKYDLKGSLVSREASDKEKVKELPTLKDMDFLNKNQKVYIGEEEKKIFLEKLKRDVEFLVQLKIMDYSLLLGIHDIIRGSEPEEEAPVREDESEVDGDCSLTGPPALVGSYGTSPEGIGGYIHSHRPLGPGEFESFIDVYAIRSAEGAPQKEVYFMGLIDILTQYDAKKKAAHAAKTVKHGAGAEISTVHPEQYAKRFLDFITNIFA
# Procedure: as §1
# [3] = target: T2, PKD2 (Homo sapiens, UniProt Q9BZL6)
# T2 sequence (Q9BZL6 1-878): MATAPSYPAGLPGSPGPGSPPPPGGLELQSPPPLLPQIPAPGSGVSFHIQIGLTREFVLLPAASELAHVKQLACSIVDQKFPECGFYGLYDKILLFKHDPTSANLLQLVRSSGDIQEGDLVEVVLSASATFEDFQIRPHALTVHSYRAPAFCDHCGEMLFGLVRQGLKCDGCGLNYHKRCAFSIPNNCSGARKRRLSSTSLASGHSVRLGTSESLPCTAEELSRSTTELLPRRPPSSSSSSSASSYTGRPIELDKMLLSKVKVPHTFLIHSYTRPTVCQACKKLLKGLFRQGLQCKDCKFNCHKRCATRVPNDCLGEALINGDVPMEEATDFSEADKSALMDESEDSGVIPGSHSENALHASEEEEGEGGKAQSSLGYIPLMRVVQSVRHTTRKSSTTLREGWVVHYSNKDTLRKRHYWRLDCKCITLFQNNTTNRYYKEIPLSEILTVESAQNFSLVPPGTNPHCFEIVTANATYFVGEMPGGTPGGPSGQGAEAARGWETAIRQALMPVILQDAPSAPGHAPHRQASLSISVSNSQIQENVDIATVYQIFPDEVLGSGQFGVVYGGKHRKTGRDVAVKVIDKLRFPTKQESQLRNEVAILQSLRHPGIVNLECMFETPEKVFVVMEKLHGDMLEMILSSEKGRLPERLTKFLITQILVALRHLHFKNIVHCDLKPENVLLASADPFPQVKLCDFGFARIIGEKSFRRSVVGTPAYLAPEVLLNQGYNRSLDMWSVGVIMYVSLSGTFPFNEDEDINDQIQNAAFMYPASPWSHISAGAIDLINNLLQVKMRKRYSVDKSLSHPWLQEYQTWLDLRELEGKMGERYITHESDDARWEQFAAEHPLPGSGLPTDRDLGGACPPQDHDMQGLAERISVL
# Procedure: as §1
# [4] = target: HPK1 (Homo sapiens, UniProt Q92918)
# Sequence of HPK1 (Q92918 whole entry): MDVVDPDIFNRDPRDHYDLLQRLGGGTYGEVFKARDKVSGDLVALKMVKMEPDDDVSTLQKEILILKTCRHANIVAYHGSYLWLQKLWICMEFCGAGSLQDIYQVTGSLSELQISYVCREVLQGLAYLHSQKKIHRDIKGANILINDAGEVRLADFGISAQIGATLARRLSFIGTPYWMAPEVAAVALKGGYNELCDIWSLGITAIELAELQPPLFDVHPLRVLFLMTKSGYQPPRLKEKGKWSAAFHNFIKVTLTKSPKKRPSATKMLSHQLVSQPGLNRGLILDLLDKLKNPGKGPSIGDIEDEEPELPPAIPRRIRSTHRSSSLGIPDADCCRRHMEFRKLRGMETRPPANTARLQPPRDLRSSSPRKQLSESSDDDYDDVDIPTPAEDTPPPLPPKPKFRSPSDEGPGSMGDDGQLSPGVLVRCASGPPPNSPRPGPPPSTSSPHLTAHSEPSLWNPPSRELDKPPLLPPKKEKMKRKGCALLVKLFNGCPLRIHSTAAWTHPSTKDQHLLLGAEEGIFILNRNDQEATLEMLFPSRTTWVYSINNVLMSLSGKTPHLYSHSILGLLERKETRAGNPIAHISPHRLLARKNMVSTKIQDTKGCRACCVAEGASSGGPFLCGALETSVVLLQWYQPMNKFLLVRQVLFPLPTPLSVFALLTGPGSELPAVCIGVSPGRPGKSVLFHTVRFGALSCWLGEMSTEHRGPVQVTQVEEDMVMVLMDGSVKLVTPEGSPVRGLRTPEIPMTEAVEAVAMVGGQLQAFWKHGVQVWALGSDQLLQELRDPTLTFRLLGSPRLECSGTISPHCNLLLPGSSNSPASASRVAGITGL
# Procedure: as §1
# Sequence of IRAK3 (Q9Y616 whole entry): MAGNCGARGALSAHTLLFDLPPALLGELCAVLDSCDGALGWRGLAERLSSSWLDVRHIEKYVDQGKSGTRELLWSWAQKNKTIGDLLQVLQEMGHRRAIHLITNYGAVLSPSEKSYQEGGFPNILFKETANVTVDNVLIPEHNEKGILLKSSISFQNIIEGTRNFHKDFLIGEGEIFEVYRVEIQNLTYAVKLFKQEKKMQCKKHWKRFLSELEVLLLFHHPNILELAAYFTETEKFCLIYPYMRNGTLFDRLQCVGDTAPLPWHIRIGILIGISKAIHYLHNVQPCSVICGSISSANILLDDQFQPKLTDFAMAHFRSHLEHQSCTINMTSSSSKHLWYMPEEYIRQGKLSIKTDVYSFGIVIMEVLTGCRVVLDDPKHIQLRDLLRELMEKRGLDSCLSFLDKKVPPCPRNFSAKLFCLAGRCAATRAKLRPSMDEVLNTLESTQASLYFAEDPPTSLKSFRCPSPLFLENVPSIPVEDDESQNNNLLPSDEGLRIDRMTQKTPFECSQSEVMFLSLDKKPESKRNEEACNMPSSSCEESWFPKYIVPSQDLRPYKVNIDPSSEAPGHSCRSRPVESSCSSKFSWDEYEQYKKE
compound,measurement,setting,value
"CS(=O)(=O)Nc1ccccc1Nc1nc(Nc2cccc(OCCN)c2)ncc1Cl [CZC31326, N-(2-(2-(3-(2-aminoethoxy)phenylamino)-5-chloropyrimidin-4-ylamino)phenyl)methanesulfonamide]",inhibition at 10 µM,[1],97.2%
same,inhibition at 10 µM,[2],98.3%
same,inhibition at 10 µM,[3],97.9%
same,inhibition at 10 µM,[4],97.7%
